Our source for the ΔTm, RU and IC50 values is ChEMBL document CHEMBL2390900, “The use of virtual screening and differential scanning fluorimetry for the rapid identification of fragments active against MEK1” (Bioorg Med Chem Lett, 2013).

Assay [1] concerns the target T1, Dual specificity mitogen-activated protein kinase kinase 1 (Homo sapiens, UniProt Q02750).
Description: Binding affinity to MEK1 (unknown origin) assessed as fluorescence intensity every 0.2 degC at 500 uM at 20 degC to 90 degC by differential screening fluorimetry analysis
The target in assay [2] is T1, Dual specificity mitogen-activated protein kinase kinase 1. This is another data set of the same source.
Assay [3] shares this target. The assay can be described thus: Inhibition of MEK1 (unknown origin) using ATP and ERK2 K54R as substrate after 60 to 80 mins by HTRF assay. On the technique in general: In TR-FRET formats the signal depends on donor and acceptor labels being close together.

For orientation: ΔTm means the change in melting temperature against a reference sample. Broadly, the IC50 is the concentration at which inhibition is half-maximal. A higher IC50 goes with weaker potency.

T1 sequence (Q02750 whole entry): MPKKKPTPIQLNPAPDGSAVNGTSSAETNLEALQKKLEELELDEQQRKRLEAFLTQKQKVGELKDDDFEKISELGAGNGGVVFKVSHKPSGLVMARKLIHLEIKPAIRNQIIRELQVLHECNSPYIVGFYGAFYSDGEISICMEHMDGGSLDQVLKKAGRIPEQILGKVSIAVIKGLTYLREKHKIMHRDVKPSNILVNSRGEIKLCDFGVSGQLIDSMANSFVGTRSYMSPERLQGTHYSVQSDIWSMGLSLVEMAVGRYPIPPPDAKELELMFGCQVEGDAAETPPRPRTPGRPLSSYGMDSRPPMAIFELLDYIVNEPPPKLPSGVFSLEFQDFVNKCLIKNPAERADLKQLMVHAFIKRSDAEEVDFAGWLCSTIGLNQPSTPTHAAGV

`O=c1[nH]ccc2cc(O[C@@H]3CCCNC3)c(Cl)cc12`: the ΔTm in assay [1] was determined as 0.2 °C. In assay [2], the RU was 0.3.

`CC1(O)CCN2C(=O)CCc3cccc1c32` (centres undefined) yielded an IC50 in assay [3] of 18.1 µM. For the same molecule, in assay [1], the ΔTm was found to be 3.8 °C.
